Experimental findings from paper PMC8174729, “Inhibition of CMP-sialic acid transport by endogenous 5-methyl CMP” (PLoS ONE, 2021) are described below.

Experiment [1] has as its target T1, CMP-sialic acid transporter (CST) (Mus musculus, UniProt Q61420).
T1 sequence (Q61420 1-336): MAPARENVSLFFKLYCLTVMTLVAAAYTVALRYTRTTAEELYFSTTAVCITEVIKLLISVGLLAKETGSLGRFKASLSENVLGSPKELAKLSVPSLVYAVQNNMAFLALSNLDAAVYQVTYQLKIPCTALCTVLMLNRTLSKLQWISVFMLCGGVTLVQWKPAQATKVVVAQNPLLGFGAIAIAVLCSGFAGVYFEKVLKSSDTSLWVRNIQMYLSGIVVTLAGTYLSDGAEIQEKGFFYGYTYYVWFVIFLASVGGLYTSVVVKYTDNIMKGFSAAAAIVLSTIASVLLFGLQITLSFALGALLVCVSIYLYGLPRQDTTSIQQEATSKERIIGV
The experiment in a line: FSEC thermal shift binding assay with Kd (also inhibits [3H]CMP-Sia uptake in Sf9 cells, IC50 […]). The arrangement: gene Slc35a1; Full-length, GFP-tagged mouse CST.

For experiment [2], the target named is T1, CMP-sialic acid transporter (CST). In words: X-ray crystal structure at […] Å; FSEC thermal shift binding assay with Kd (also inhibits [3H]CMP-Sia uptake in Sf9 cells, IC50 […]). Also on record: gene Slc35a1; Kd: full-length, GFP-tagged mouse CST; crystal: CSTΔC construct, which lacks the last 15 residues (322–336).

For the compound `Nc1ccn([C@@H]2O[C@H](COP(=O)(O)O)[C@@H](O)[C@H]2O)c(=O)n1` [CMP], the Kd in experiment [1] stood at 16.1 µM.

As for `Cc1cn([C@@H]2O[C@H](COP(=O)(O)O)[C@@H](O)[C@H]2O)c(=O)nc1N` [m5CMP, 5-methyl CMP], the dissociation constant (Kd) in experiment [2] is 1 µM.

The Kd is the constant that tells how readily two partners part at equilibrium.
